Reference: patent US20080032897A1, “Methods of screening for inhibitors of autoinhibited proteins” (priority 2004, published 2008)
“Also recorded” adds a separate entry of the source.

Legend:
full-length Pak1 = biological target: T1, full-length Pak1 (Homo sapiens, UniProt Q13153); assay: luminescence-based (Kinase Glo) kinase assay, Cdc42-activated full-length Pak1; format: biochemical; settings: 384-well plates, ATP-dependent luminescence, FIG. 9C
T1 construct: made in house; host or cells: Sf9 cells
Method: In some embodiments, the kinase activity of these two proteins (wild-type full length kinase, and isolated kinase domain) is measured in parallel using a validated luminescence-based assay. In this assay, kinase activity is based on a measurement of the residual ATP in the reaction following kinase-mediated ATP hydrolysis (Kinase Glo®; Promega®). This is an endpoint assay in which kinase reactions are allowed to proceed until a predetermined timepoint at which point the addition of the Kinase Glo® detection mix containing luciferase and luciferin stops the kinase reaction and utilizes the residual ATP to convert luciferin to oxyluciferin with the accompanying emission of a photon of light. Intensity of the emitted light is linearly correlated with ATP concentration. […]
The isolated kinase domain or full-length Pak1 in assay buffer is aliquotted into individual wells of a 384-well plate using a Bio-Tek MicroFill®. […] The reaction is stopped by the addition of Kinase Glo® reagent (15 μl/well), and is incubated at room temperature for 10-30 minutes to allow development of luminescence. Luminescence is read in a Cary Eclipse (Varian®) fluorometer/luminometer outfitted for reading 384-well plates.
A luminescence-based assay for kinase activity is used based on measurement of residual ATP in the reaction following kinase-mediated ATP hydrolysis. […]

[1] = system: mixed-lineage kinases (MLKs); settings: reported; cited from earlier work
Pak = settings: reported; cited from earlier work
N-WASP = settings: cited from earlier work
WASP = biological target: T2, WASP (Homo sapiens, UniProt P42768); settings: cited from earlier work
T2 sequence (P42768 with tags, fused parts or gaps limits assumed): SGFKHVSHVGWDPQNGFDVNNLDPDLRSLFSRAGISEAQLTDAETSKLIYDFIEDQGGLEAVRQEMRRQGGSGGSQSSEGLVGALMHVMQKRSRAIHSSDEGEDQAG

T1 sequence (Q13153 whole entry): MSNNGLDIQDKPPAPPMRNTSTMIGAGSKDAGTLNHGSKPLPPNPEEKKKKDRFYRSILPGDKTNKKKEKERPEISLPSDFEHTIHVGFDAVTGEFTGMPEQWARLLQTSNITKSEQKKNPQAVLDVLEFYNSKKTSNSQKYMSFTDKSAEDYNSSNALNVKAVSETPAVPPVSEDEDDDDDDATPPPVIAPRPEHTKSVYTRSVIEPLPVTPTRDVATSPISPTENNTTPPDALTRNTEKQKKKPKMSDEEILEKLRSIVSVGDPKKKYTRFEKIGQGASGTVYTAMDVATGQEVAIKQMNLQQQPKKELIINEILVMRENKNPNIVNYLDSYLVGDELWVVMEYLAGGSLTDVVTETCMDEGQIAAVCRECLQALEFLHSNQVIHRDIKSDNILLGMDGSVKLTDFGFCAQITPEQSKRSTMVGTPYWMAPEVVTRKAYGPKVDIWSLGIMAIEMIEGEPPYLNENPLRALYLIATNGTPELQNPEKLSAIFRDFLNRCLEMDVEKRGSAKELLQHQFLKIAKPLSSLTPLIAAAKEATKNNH

Q: With `CN[C@@H]1C[C@H]2O[C@@](C)([C@@H]1OC)n1c3ccccc3c3c4c(c5c6ccccc6n2c5c31)C(=O)NC4` [staurosporine] as the molecule, how does the “inhibition of Pak1 kinase activity” value (full-length Pak1) read?
A: Its value is “successfully detects inhibition of Pak; also recorded: readily detected”.

Q: What does the source list for `CCSCc1ccc2c(c1)c1c3c(c4c5cc(CSCC)ccc5n5c4c1n2[C@H]1C[C@](O)(C(=O)OC)[C@]5(C)O1)CNC3=O` [CEP-1347]?
A: potency against MLKs relative to Pak [1]: at least an order of magnitude more potent; concentration at which Pak is inhibited (Pak): low micromolar

Q: Which “inhibition of N-WASP” value (N-WASP) does the source give for `CN(C)C[C@H](O)Cn1c2ccc(Br)cc2c2cc(Br)ccc21` (racemic) [wiskostatin] here?
A: Its value is “chemical inhibitors of N-WASP”.

Q: What about the “binding site on WASP” value (WASP; NMR structure) of the same molecule?
A: The value was “bound exclusively to the PBD in its autoinhibited conformation”.

Q: And the “effect on autoinhibited fold of the PBD” value (WASP; biophysical experiments)?
A: Its value is “stabilizes the autoinhibited fold of the PBD”.
